Reference: ChEMBL document CHEMBL6078725, “Discovery of novel xanthohumol C derivatives regulating XRCC2 transcription and expression for the treatment of colorectal cancer” (Bioorg Med Chem, 2025)
Active and inactive are the calls of the source. The calls are words filed in the database; no cut-off is given here.

Columns and labels:
RKO = assay: Antiproliferative activity against human RKO cells incubated for 48 hrs by MTS assay; assay type: functional, cell-based
HCT-116 [1] = assay: Antiproliferative activity against human HCT-116 cells incubated for 48 hrs by MTS assay; assay type: functional, cell-based; conditions: HCT-116, 48 h
HCT-116 [2] = assay: Antitumor activity against human HCT-116 cells xenografted in BALB/c mouse assessed as inhibition of tumor growth at 20 mg/kg, ip administered for 2 weeks; assay type: functional, organism-based

Compound	IC50 (RKO) [µM]	IC50 (HCT-116 [1]) [µM]	Activity (HCT-116 [2])
COc1cc2c(c(O)c1C(=O)/C=C/c1ccc(Cl)cc1)C=CC(C)(C)O2	26.2	26.1	–
COc1cc2c(c(O)c1C(=O)/C=C/c1ccc3[nH]ccc3c1)C=CC(C)(C)O2	19.2	> 22.4	–
COc1cc2c(c(O)c1C(=O)/C=C/c1ccccc1O)C=CC(C)(C)O2	10.9	12.9	–
COc1cc2c(c(O)c1C(=O)/C=C/c1cccc(OCc3ccccc3)c1)C=CC(C)(C)O2	149	189	–
COc1cc2c(c(O)c1C(=O)/C=C/c1ccc(N(C)C)cc1)C=CC(C)(C)O2	118	> 200	–
COc1cc(/C=C/C(=O)c2c(OC)cc3c(c2O)C=CC(C)(C)O3)cc(OC)c1O	25.6	39.4	–
O=c1[nH]cc(F)c(=O)[nH]1	–	–	Active
COc1cc2c(c(O)c1C(=O)/C=C/c1ccccc1Br)C=CC(C)(C)O2	23.1	20.5	–
COc1cc2c(c(O)c1C(=O)/C=C/c1cccc(C(C)(C)C)c1)C=CC(C)(C)O2	89.8	74.2	–
